Patent US20240166649A1, “DIHYDROPYRIMIDINE COMPOUND, PREPARATION METHOD THEREFOR AND APPLICATION THEREOF” (Shanghai Visonpharma Co., Ltd., priority 2021, published 2024)

Legend:
[1] = Cytotoxicity assay (CellTiter Glo); format: cell-based; conditions: human; HepG2.2.15 cells, five days post treatment
Experimental: The Invention Determined Cytotoxicity of the Compounds Against HepG2.2.15 Cells (Table 2)
HepG2.2.15 cells were seeded into 96-well plates (8000 cells per well) and cell viability was measured by the addition of 60 μL of CellTiter Glo reagent (Promega) five days post treatment with the compounds. Cell plates with CellTiter Glo added were shaken on a plate shaker for 20 min and then the chemiluminescence signal was stabilized at room temperature for 10 min. Chemiluminescence values were read using a microplate reader (Bio-TeK SYNERGY NEO2).
The concentration corresponding to 50% cytotoxicity (CC50) was fitted by graphpad prism software. The cytotoxicity was calculated by the formula: % Cytotoxicity=100−(chemiluminescence value of sample Well −average chemiluminescence value of blank medium column)/(average chemiluminescence value of DMSO column −average chemiluminescence value of blank medium column)*100

[2] = tested on: HBV (hepatitis B virus) in HepG2.2.15 cells; experiment: Cell-based anti-viral activity assay (HBV DNA in supernatant by quantitative PCR); conditions: 120 h, anti-HBV activity, HepG2.2.15 cells, 5 days, read-out: EC50 (HepG2.2.15)
Experimental: Cell-Based Anti-Viral Activity Assay
The Invention determined the anti-HBV (hepatitis B virus) activity of compounds in HepG2.2.15 cells (Table 1).
HepG2.2.15 is a cell line stably transfected with the HBV genome. HepG2.2.15 cells were cultured in DMEM (1X) with 10% fetal bovine serum (Corning), 100 U penicillin (Gibico), 100 μg/mL streptomycin (Gibico), 250 μg/mL geneticin (Gibco) and GlutaMAXTM-I medium (Invitrogen).
HepG2.2.15 cells were seeded into 96-well plates (4×10^4 cells in 100 μL of medium per well) and incubated overnight at 37° C. The test compounds were weighed and prepared as 10 mM stock solution with DMSO. The stock solutions of the compounds were diluted by a gradient of 3.16 times with DMSO, and then diluted by a gradient of 3.16 times with medium for 50 times. Finally, the diluted compound solutions were added to the cell plate with a total volume of 200 μL and the final DMSO concentration was 1%. The 96-well culture plates loaded with drugs were transferred to an incubator at 37° C. for 5 days. […] nucleic acid releasing agent was added to 96-well PCR reaction plate, and 2 μL of cell supernatant or HBV quantitative standards were added to the corresponding Wells. Centrifuged the plates to fully mix, and incubated at room temperature for 10 min to fully release nucleic acid. Quantified HBV DNA content by fluorescent quantitative PCR (CFX Connect Real-Time System) using Sanxiang Bio hepatitis B virus fluorescent quantitative diagnostic kit.
The standard curve was established by taking the logarithm of the copy number (IU/ml) of the HBV standard sample (log 10) as the abscordinate and the corresponding CT value as the ordinate. The copy number of the sample was calculated according to the corresponding CT of the positive sample and the standard curve, and the percentage of inhibition rate was calculated as follows: • % Inhibition=100-100*(sample HBV copy number−high concentration reference compound column HBV copy number)/DMSO column HBV copy number−high concentration reference compound column HBV copy number).

SMILES | CC50 at 5 days [1] [nM] | EC50 [2] [nM]
CCOC(=O)C1=C(CN2CCN3C(=O)N(C45CC(NS(=O)(=O)C6CC6)(C4)C5)C[C@@H]3C2)NC(c2nccs2)=N[C@H]1c1cccc(F)c1C [Compound 29, Ethyl (S)-6-(((S)-2-(3-(Cyclopropanesulfonamido)Bicyclo[1.1.1]Pentan-1-Yl)-3-Oxohexahydroimidazo[1,5-a]Pyrazin-7(1H)-Yl)Methyl)-4-(3-Fluoro-2-Methylphenyl)-2-(Thiazol-2-Yl)-1,4-Dihydropyrimidine-5-Carboxylate] | > 50000 | 6
CCOC(=O)C1=C(CN2CCN3C(=O)N(C45CCC(C(=O)O)(CC4)CC5)C[C@@H]3C2)NC(c2nccs2)=N[C@H]1c1ccc(F)cc1C [Compound 53, 4-((S)-7-(((S)-5-(Ethoxycarbonyl)-6-(4-Fluoro-2-Methylphenyl)-2-(Thiazol-2-Yl)-3,6-Dihydropyrimidin-4-Yl)Methyl)-3-Oxohexahydroimidazo[1,5-a]Pyrazin-2(3H)-Yl)Bicyclo[2.2.2]Octane-1-Carboxylic Acid] | > 50000 | 9
CCOC(=O)C1=C(CN2CCN3C(=O)N(C45CC(CO)(C4)C5)C[C@@H]3C2)NC(c2nccs2)=N[C@H]1c1cccc(F)c1C [Compound 2, Ethyl (S)-4-(3-Fluoro-2-Methylphenyl)-6-(((S)-2-(3-(Hydroxymethyl)Bicyclo[1.1.1]Pentan-1-Yl)-3-Oxohexahydroimidazo[1,5-a]Pyrazin-7(1H)-Yl)Methyl)-2-(Thiazol-2-Yl)-1,4-Dihydropyrimidine-5-Carboxylate] | > 50000 | 3
CCOC(=O)CC12CC(N3C[C@@H]4[C@@H](COC)N(CC5=C(C(=O)OCC)[C@H](c6cccc(F)c6C)N=C(c6nccs6)N5)CCN4C3=O)(C1)C2 [Compound 44, Ethyl (S)-6-(((8S,8aR)-2-(3-(2-Ethoxy-2-Oxoethyl)Bicyclo[1.1.1]Pentan-1-Yl)-8-(Methoxymethyl)-3-Oxohexahydroimidazo[1,5-a]Pyrazin-7(1H)-Yl)Methyl)-4-(3-Fluoro-2-Methylphenyl)-2-(Thiazol-2-Yl)-1,4-Dihydropyrimidine-5-Carboxylate] | > 50000 | 183
CCOC(=O)C1=C(CN2CCN3C(=O)N(C45CC(C(=O)O)(C4)C5)C[C@@H]3C2)NC(c2nccs2)=N[C@H]1c1cccc(F)c1C [Compound 1, 3-((S)-7-(((S)-5-(Ethoxycarbonyl)-6-(3-Fluoro-2-Methylphenyl)-2-(Thiazol-2-Yl)-3,6-Dihydropyrimidin-4-Yl)Methyl)-3-Oxohexahydroimidazo[1,5-a]Pyrazin-2(3H)-Yl)Bicyclo[1.1.1]Pentane-1-Carboxylic Acid] | > 50000 | 33
CCOC(=O)C1=C(CN2CCN3C(=O)N(CC45CC(C(=O)O)(C4)C5)C[C@@H]3C2)NC(c2nccs2)=N[C@H]1c1cccc(F)c1C [Compound 5, 3-(((S)-7-(((S)-5-(Ethoxycarbonyl)-6-(3-Fluoro-2-Methylphenyl)-2-(Thiazol-2-Yl)-3,6-Dihydropyrimidin-4-Yl)Methyl)-3-Oxohexahydroimidazo[1,5-a]Pyrazin-2(3H)-Yl)Methyl)Bicyclo[1.1.1]Pentane-1-Carboxylic Acid] | > 50000 | 73
CCOC(=O)C1=C(CN2CCN3C(=O)N(C45CCC(C(=O)O)(CC4)CC5)C[C@@H]3C2)NC(c2nccs2)=N[C@H]1c1cccc(F)c1C [Compound 52, 4-((S)-7-(((S)-5-(Ethoxycarbonyl)-6-(3-Fluoro-2-Methylphenyl)-2-(Thiazol-2-Yl)-3,6-Dihydropyrimidin-4-Yl)Methyl)-3-Oxohexahydroimidazo[1,5-a]Pyrazin-2(3H)-Yl)Bicyclo[2.2.2]Octane-1-Carboxylic Acid] | > 50000 | 3
CCOC(=O)C1=C(CN2CCN3C(=O)N(C45CC(CC(=O)O)(C4)C5)C[C@@H]3C2)NC(c2nccs2)=N[C@H]1c1ccc(F)cc1Cl [Compound 35] | > 50000 | 28
CCOC(=O)C1=C(CN2CCN3C(=O)N(C45CC(C#N)(C4)C5)C[C@@H]3C2)NC(c2nccs2)=N[C@H]1c1cccc(F)c1C [Compound 17, Ethyl (S)-6-(((S)-2-(3-Cyanobicyclo[1.1.1]Pentan-1-Yl)-3-Oxohexahydroimidazo[1,5-a]Pyrazin-7(1H)-Yl) Methyl)-4-(3-Fluoro-2-Methylphenyl)-2-(Thiazol-2-Yl)-1,4-Dihydropyrimidine-5-Carboxylate] | > 50000 | 5
CCOC(=O)C1=C(CN2CCN3C(=O)N(C45CCC(C(=O)O)(C4)C5)C[C@@H]3C2)NC(c2nccs2)=N[C@H]1c1ccc(F)cc1Cl [Compound 57, 4-((S)-7-(((R)-6-(2-Chloro-4-Fluorophenyl)-5-(Ethoxycarbonyl)-2-(Thiazol-2-Yl)-3,6-Dihydropyrimidin-4-Yl)Methyl)-3-Oxohexahydroimidazo[1,5-a]Pyrazin-2(3H)-Yl)Bicyclo[2.1.1]Hexane-1-Carboxylic Acid] | > 50000 | 12
CCOC(=O)C1=C(CN2CCN3C(=O)N(C45CC(COC)(C4)C5)C[C@@H]3[C@H]2C(=O)O)NC(c2nccs2)=N[C@H]1c1cccc(F)c1C [Compound 47, (8S,8aR)-7-(((S)-5-(Ethoxycarbonyl)-6-(3-Fluoro-2-Methylphenyl)-2-(Thiazol-2-Yl)-3,6-Dihydropyrimidin-4-Yl)Methyl)-2-(3-(Methoxymethyl)Bicyclo[1.1.1]Pentan-1-Yl)-3-Oxooctahydroimidazo[1,5-a]Pyrazine-8-Carboxylic Acid] | > 50000 | 18
CCOC(=O)C1=C(CN2CCN3C(=O)N(C45CC(N(C)CC(=O)O)(C4)C5)C[C@@H]3C2)NC(c2nccs2)=N[C@H]1c1cccc(F)c1C [Compound 49, N-(3-((S)-7-(((S)-5-(Ethoxycarbonyl)-6-(3-Fluoro-2-Methylphenyl)-2-(Thiazol-2-Yl)-3,6-Dihydropyrimidin-4-Yl)Methyl)-3-Oxohexahydroimidazo[1,5-a]Pyrazin-2(3H)-Yl)Bicyclo[1.1.1]Pentan-1-Yl)-N-Methylglycine] | > 50000 | 17
CCOC(=O)C1=C(CN2CCN3C(=O)N(C45C6C7C4C4C5C6C74C(=O)O)C[C@@H]3C2)NC(c2nccs2)=N[C@H]1c1cccc(F)c1C (stereo partly shown) [Compound 61] | > 50000 | 17
CCOC(=O)C1=C(CN2CCN3C(=O)N(C45CCC(C(=O)O)(CC4)C5)C[C@@H]3C2)NC(c2nccs2)=N[C@H]1c1ccc(F)cc1Cl [Compound 60, 4-((S)-7-(((R)-6-(2-Chloro-4-Fluorophenyl)-5-(Ethoxycarbonyl)-2-(Thiazol-2-Yl)-3,6-Dihydropyrimidin-4-Yl)Methyl)-3-Oxohexahydroimidazo[1,5-a]Pyrazin-2(3H)-Yl)Bicyclo[2.2.1]Heptane-1-Carboxylic Acid] | > 50000 | 9
CCOC(=O)C1=C(CN2CCN3C(=O)N(C45CCC(C(=O)O)(C4)C5)C[C@@H]3C2)NC(c2nccs2)=N[C@H]1c1cccc(F)c1C [Compound 56, 4-((S)-7-(((S)-5-(Ethoxycarbonyl)-6-(3-Fluoro-2-Methylphenyl)-2-(Thiazol-2-Yl)-3,6-Dihydropyrimidin-4-Yl)Methyl)-3-Oxohexahydroimidazo[1,5-a]Pyrazin-2(3H)-Yl)Bicyclo[2.1.1]Hexane-1-Carboxylic Acid] | > 50000 | 16
CCOC(=O)C1=C(CN2CCN3C(=O)N(C45CC(COC)(C4)C5)C[C@@H]3[C@@H]2C(=O)O)NC(c2nccs2)=N[C@H]1c1cccc(F)c1C [Compound 48, (8R,8aR)-7-(((S)-5-(Ethoxycarbonyl)-6-(3-Fluoro-2-Methylphenyl)-2-(Thiazol-2-Yl)-3,6-Dihydropyrimidin-4-Yl)Methyl)-2-(3-(Methoxymethyl)Bicyclo[1.1.1]Pentan-1-Yl)-3-Oxooctahydroimidazo[1,5-a]Pyrazine-8-Carboxylic Acid] | > 50000 | 15
CCOC(=O)C1=C(CN2CCN3C(=O)N(C45CCC(C(=O)O)(CC4)C5)C[C@@H]3C2)NC(c2nccs2)=N[C@H]1c1cccc(F)c1C [Compound 59, 4-((S)-7-(((S)-5-(Ethoxycarbonyl)-6-(3-Fluoro-2-Methylphenyl)-2-(Thiazol-2-Yl)-3,6-Dihydropyrimidin-4-Yl)Methyl)-3-Oxohexahydroimidazo[1,5-a]Pyrazin-2(3H)-Yl)Bicyclo[2.2.1]Heptane-1-Carboxylic Acid] | > 50000 | 12
